Laboratory results reported in patent US20230133672A1, “FUSION POLYPEPTIDE COMPRISING GDF15 AND POLYPEPTIDE REGION CAPABLE OF O-GLYCOSYLATION” (LG CHEM, LTD., priority 2019, published 2023).

What was measured:
[1] = Pharmacokinetic test, subcutaneous administration to SD rats (serum ELISA, Human GDF15 Immunoassay); format: in vivo; conditions: 2 mg/kg subcutaneous, serum
Description: For evaluation of pharmacokinetic characteristics when each fusion polypeptide was subcutaneously administered to rats, the fusion polypeptides HT-ID1-GDF15, HT-ID2-GDF15 and HT-ID3-GDF15 were subcutaneously administered into SD rats (Koatech, male, 7-week-old, about 250 g; n=3 each; test group) in an amount of 2 mg/kg, respectively, and about 200 μl of blood was collected through the caudal vein at a predetermined time. The blood collection time was performed before administration, and 1, 2, 4, 8, 24, 48, 72, 96, 168, 240 and 336 hours after administration. As the control group for comparison of pharmacokinetic characteristics, GDF15 (R&D Systems) was subcutaneously administered in an amount of 2 mg/kg by the same method to prepare a GDF15 administration group.
After administering into SD Rats as above, blood collected by time-point was centrifuged to obtain serum, and ELISA was performed using Human GDF15 Immunoassay (SGD150, R&D Systems), and the concentration in the serum was measured depending on the time of each polypeptide.

[2] = Repeated administration: feed intake in DIO mice; format: in vivo, Mouse, C57BL/6J-DIO; parameters: unit not given here
Description: In addition, after administering the test substances into mice, the daily feed intake was measured, and the feeding amount was measured using an electronic scale for each breeding box, and the remaining amount was measured to calculate the daily feed intake. In case of an individual that gnawed heavily on heed, it was excluded from the measurement.
All the experimental results obtained in the present example were expressed as mean±standard error and tested using Prism5 (version 5.01). One-way analysis of variance (ANOVA) was performed on all data, and when significance was observed, Dunnett's test was performed to find out the test groups with a significant difference from the control group (significance level: two-sided 5% and 1%, 0.1%).
Except for the administration dose, animal number and administration cycle, most of the test processes were the same as in Example 2.1.1 above.
The test substances were administered twice a week (Days 0, 4, 7, 11, 14, 18, 21, 25) for a total of 8 times. For comparison, the control group in which the control substance Semaglutide was administered every day was prepared, and the comparison group in which Semaglutide was administered every day was administered once a day daily, and all the administration was progressed from 9 AM.

HT-ID3-GDF15: Fusion polypeptide: His-Tag, TEV cleavage site, three IgD hinges, GS linker, GDF15 (SEQ ID NO: 3)
AUCextp (%) [(AUCinf − AUClast)/AUCinf]*100 [1]: 0.287% | AUClast [1]: 76200 ng·h/mL | Cmax (maximum concentration in blood) [1]: 1110 ng/mL | Tmax (reaching time to maximum concentration in blood) [1]: 24 h | t1/2 (loss half-life) [1]: 26.2 h | AUCinf ([1]; extrapolated to infinity): 76400 ng·h/mL | Feed intake, Mean ([2]; Day 1, 3 nmol/kg twice a week): 2.9 | Feed intake, Mean ([2]; Day 1, 10 nmol/kg twice a week): 2.9 | Feed intake, Mean ([2]; Day 1, 30 nmol/kg twice a week): 2.5 | Feed intake, Mean ([2]; Day 2, 3 nmol/kg twice a week): 1.5 | Feed intake, Mean ([2]; Day 2, 10 nmol/kg twice a week): 1.7 | Feed intake, Mean ([2]; Day 2, 30 nmol/kg twice a week): 1.6 | Feed intake, Mean ([2]; Day 3, 3 nmol/kg twice a week): 1.9 | Feed intake, Mean ([2]; Day 3, 10 nmol/kg twice a week): 2.3 | Feed intake, Mean ([2]; Day 3, 30 nmol/kg twice a week): 2.1 | Feed intake, Mean ([2]; Day 4, 3 nmol/kg twice a week): 1.9 | Feed intake, Mean ([2]; Day 4, 10 nmol/kg twice a week): 2.2 | Feed intake, Mean ([2]; Day 4, 30 nmol/kg twice a week): 2.2 | Feed intake, Mean ([2]; Day 5, 3 nmol/kg twice a week): 2.0 | Feed intake, Mean ([2]; Day 5, 10 nmol/kg twice a week): 2.1 | Feed intake, Mean ([2]; Day 5, 30 nmol/kg twice a week): 2.3 | Feed intake, Mean ([2]; Day 6, 3 nmol/kg twice a week): 1.6 | Feed intake, Mean ([2]; Day 6, 10 nmol/kg twice a week): 1.9 | Feed intake, Mean ([2]; Day 6, 30 nmol/kg twice a week): 1.8 | Feed intake, Mean ([2]; Day 7, 3 nmol/kg twice a week): 2.1 | Feed intake, Mean ([2]; Day 7, 10 nmol/kg twice a week): 2.2 | Feed intake, Mean ([2]; Day 7, 30 nmol/kg twice a week): 2.2 | Feed intake, Mean ([2]; Day 8, 3 nmol/kg twice a week): 2.1 | Feed intake, Mean ([2]; Day 8, 10 nmol/kg twice a week): 2.1 | Feed intake, Mean ([2]; Day 8, 30 nmol/kg twice a week): 2.1 | Feed intake, Mean ([2]; Day 9, 3 nmol/kg twice a week): 1.9 | Feed intake, Mean ([2]; Day 9, 10 nmol/kg twice a week): 2.1 | Feed intake, Mean ([2]; Day 9, 30 nmol/kg twice a week): 2.0 | Feed intake, Mean ([2]; Day 10, 3 nmol/kg twice a week): 2.4 | Feed intake, Mean ([2]; Day 10, 10 nmol/kg twice a week): 2.4 | Feed intake, Mean ([2]; Day 10, 30 nmol/kg twice a week): 2.5 | Feed intake, Mean ([2]; Day 11, 3 nmol/kg twice a week): 2.5 | Feed intake, Mean ([2]; Day 11, 10 nmol/kg twice a week): 3.0 | Feed intake, Mean ([2]; Day 11, 30 nmol/kg twice a week): 2.9 | Feed intake, Mean ([2]; Day 12, 3 nmol/kg twice a week): 3.9 | Feed intake, Mean ([2]; Day 12, 10 nmol/kg twice a week): 4.1 | Feed intake, Mean ([2]; Day 12, 30 nmol/kg twice a week): 4.0 | Feed intake, Mean ([2]; Day 13, 3 nmol/kg twice a week): 2.9 | Feed intake, Mean ([2]; Day 13, 10 nmol/kg twice a week): 2.5 | Feed intake, Mean ([2]; Day 13, 30 nmol/kg twice a week): 2.1 | Feed intake, Mean ([2]; Day 14, 3 nmol/kg twice a week): 3.2 | Feed intake, Mean ([2]; Day 14, 10 nmol/kg twice a week): 3.3 | Feed intake, Mean ([2]; Day 14, 30 nmol/kg twice a week): 3.0 | Feed intake, Mean ([2]; Day 15, 3 nmol/kg twice a week): 3.1 | Feed intake, Mean ([2]; Day 15, 10 nmol/kg twice a week): 3.2 | Feed intake, Mean ([2]; Day 15, 30 nmol/kg twice a week): 3.1 | Feed intake, Mean ([2]; Day 16, 3 nmol/kg twice a week): 2.7 | Feed intake, Mean ([2]; Day 16, 10 nmol/kg twice a week): 2.2 | Feed intake, Mean ([2]; Day 16, 30 nmol/kg twice a week): 1.9 | Feed intake, Mean ([2]; Day 17, 3 nmol/kg twice a week): 3.0 | Feed intake, Mean ([2]; Day 17, 10 nmol/kg twice a week): 3.3 | Feed intake, Mean ([2]; Day 17, 30 nmol/kg twice a week): 3.0 | Feed intake, Mean ([2]; Day 18, 3 nmol/kg twice a week): 3.1 | Feed intake, Mean ([2]; Day 18, 10 nmol/kg twice a week): 3.3 | Feed intake, Mean ([2]; Day 18, 30 nmol/kg twice a week): 3.2 | Feed intake, Mean ([2]; Day 19, 3 nmol/kg twice a week): 3.3 | Feed intake, Mean ([2]; Day 19, 10 nmol/kg twice a week): 3.4 | Feed intake, Mean ([2]; Day 19, 30 nmol/kg twice a week): 3.3 | Feed intake, Mean ([2]; Day 20, 3 nmol/kg twice a week): 2.7 | Feed intake, Mean ([2]; Day 20, 10 nmol/kg twice a week): 2.4 | Feed intake, Mean ([2]; Day 20, 30 nmol/kg twice a week): 1.9 | Feed intake, Mean ([2]; Day 21, 3 nmol/kg twice a week): 3.0 | Feed intake, Mean ([2]; Day 21, 10 nmol/kg twice a week): 3.1 | Feed intake, Mean ([2]; Day 21, 30 nmol/kg twice a week): 3.1 | Feed intake, Mean ([2]; Day 22, 3 nmol/kg twice a week): 3.1 | Feed intake, Mean ([2]; Day 22, 10 nmol/kg twice a week): 3.2 | Feed intake, Mean ([2]; Day 22, 30 nmol/kg twice a week): 3.4 | Feed intake, Mean ([2]; Day 23, 3 nmol/kg twice a week): 2.9 | Feed intake, Mean ([2]; Day 23, 10 nmol/kg twice a week): 2.7 | Feed intake, Mean ([2]; Day 23, 30 nmol/kg twice a week): 2.3 | Feed intake, Mean ([2]; Day 24, 3 nmol/kg twice a week): 3.1 | Feed intake, Mean ([2]; Day 24, 10 nmol/kg twice a week): 3.1 | Feed intake, Mean ([2]; Day 24, 30 nmol/kg twice a week): 3.3 | Feed intake, Mean ([2]; Day 25, 3 nmol/kg twice a week): 2.9 | Feed intake, Mean ([2]; Day 25, 10 nmol/kg twice a week): 3.3 | Feed intake, Mean ([2]; Day 25, 30 nmol/kg twice a week): 3.2 | Feed intake, Mean ([2]; Day 26, 3 nmol/kg twice a week): 3.0 | Feed intake, Mean ([2]; Day 26, 10 nmol/kg twice a week): 3.3 | Feed intake, Mean ([2]; Day 26, 30 nmol/kg twice a week): 3.2 | Feed intake, Mean ([2]; Day 27, 3 nmol/kg twice a week): 2.8 | Feed intake, Mean ([2]; Day 27, 10 nmol/kg twice a week): 2.7 | Feed intake, Mean ([2]; Day 27, 30 nmol/kg twice a week): 2.2 | Feed intake, Mean ([2]; Day 28, 3 nmol/kg twice a week): 2.7 | Feed intake, Mean ([2]; Day 28, 10 nmol/kg twice a week): 3.2 | Feed intake, Mean ([2]; Day 28, 30 nmol/kg twice a week): 3.2
